Test results taken from patent US20240261274A1, “TREATMENT OF MYC-DRIVEN CANCERS WITH GSPT1 DEGRADERS” (MONTE ROSA THERAPEUTICS, INC., priority 2021, published 2024).

How the values were obtained:
Myc target genes = assay: RNAseq ssGSEA of Myc target genes in NCI-H1155 and NCI-H2023; format: cell-based; conditions: high N-Myc expressing cells, 0.1 μM and 1 μM
Description: A High N-Myc expressing NSCLC cell lines ([…]) and a low N-Myc expressing NSCLC cell lines (NCI-H2023) were treated with Compound 345 in culture. Cells were treated with increasing concentrations of the compound (0.0; 0.03; 0.3; 3 μM), cells were withdrawn from the culture at time points of 0, 2, and 6 hours, lysates were prepared, SDS-PAGE and immunoblotting was performed, and transfer membranes were probed for GSPT1, N-Myc, and Tubulin as a loading control (N-Myc was not probed in the NCI-2023 experiment). […] For the same cell lines, RNAseq followed by single sample gene set enrichment analysis (ssGSEA) was performed at six hours and 24 hours after treatment with Compound 345. […]
Transcriptomics experiment in NCI-H1155 and NCI-H2023 NSCLC lines: NCI-H1155 and NCI-H2023 were typically seeded in a 6 well plate (0.5×10^6 NCI-H1155 cells/mL; 0.3×10^6 NCI-H2023 cells/mL; 2 ml/well) and incubated overnight. […] Total RNA yields and quality were measured using the DeNovix DS-11 Spectrophotometer. […] Library yields were measured using a QuBit 4 fluorometer ([…], Q33238) and sizes were measured using a Tapestation 4150 (Agilent, G2992AA) and screentape (Agilent, 5067-5562). […] The modulation of Myctarget gene expression upon treatment with MRT-2359 was analyzed in RNAseq profiles of both Myc-driven (NCI-Hi 155) and non-Mycdriven (NCI-H2023) cell lines. […]

L-Myc = L-Myc levels in SCLC lines after Compound 345 (western blot); format: cell-based; conditions: SCLC lines NCI-H1836 and NCI-H1876
Excerpt: NCI-H1836 and NCI-H1876 were taken as two representatives of L-Myc high SCLC. Western blot analysis probing for GSPT1 and L-Myc following treatment with Compound 345 as indicated. GAPDH was used as a loading control.

Question: How did the “ssGSEA score, Myc gene set” value (Myc target genes; 24 hours) turn out when `O=C1CCC(N2Cc3ccc(COC(=O)Nc4cc(OC(F)(F)F)ccc4F)cc3C2=O)C(=O)N1` (stereo not drawn) [Compound 345, (2-(2,6-dioxopiperidin-3-yl)-3-oxoisoindolin-5-yl)methyl(2-fluoro-5-(trifluoromethoxy)phenyl)carbamate] was run?
Answer: The value was “significant downregulation of the Myc gene set”.

Question: And the “ssGSEA score, Myc gene set” value (Myc target genes; six hours)?
Answer: Its value is “modest down regulation of the Myc gene set”.

Question: What about the “L-Myc level, timecourse” value (L-Myc) of the same compound?
Answer: The value was “downregulation of L-Myc”.
